Reference: patent US5919756A, “Amides” (Eli Lilly and Company, priority 1997, dated 1999)
In brackets after ≈: the same amount, converted by molar mass.

How the values were obtained:
Assay type in all cases: cell-based
[1] = system: Enterococcus, Sensitive (4-6 isolates); assay: Enterococcus screen, broth micro-dilution MIC, sensitive isolates; design: unit not given here; conditions: mean of 4-6 isolates
Protocol: (§1) The antibacterial efficacy of the present compounds is illustrated in TABLE 2. The minimal inhibitory concentrations (MICs) were determined using a standard broth micro-dilution assay.

[2] = system: Staphylococcus haemolyticus 105; assay: Broth micro-dilution MIC, SH 105; conditions: unit assumed
Protocol: as §1

[3] = system: Staphylococcus aureus 447; assay: Broth micro-dilution MIC, SA 447; conditions: unit assumed
Protocol: as §1

[4] = system: Streptococcus pneumoniae P1; assay: Broth micro-dilution MIC, S PN P1; conditions: unit assumed
Protocol: as §1

[5] = system: Staphylococcus epidermis 270; assay: Broth micro-dilution MIC, SE 270; conditions: unit assumed
Protocol: as §1

[6] = system: Enterococcus, Resistant (4-6 isolates); assay: Enterococcus screen, broth micro-dilution MIC, resistant isolates; design: unit not given here; conditions: mean of 4-6 isolates
Protocol: as §1

[7] = system: Staphylococcus aureus 489; assay: Broth micro-dilution MIC, SA 489; conditions: unit assumed
Protocol: as §1

[8] = system: Staphylococcus aureus 446; assay: Broth micro-dilution MIC, SA 446; conditions: unit assumed
Protocol: as §1

[9] = system: Staphylococcus haemolyticus 415; assay: Broth micro-dilution MIC, SH 415; conditions: unit assumed
Protocol: as §1

[10] = system: Streptococcus pyogenes 203; assay: Broth micro-dilution MIC, S PY 203; conditions: unit assumed
Protocol: as §1

For `CNC(CC(C)C)C(=O)NC1C(=O)NC(CC(N)=O)C(=O)NC2C(=O)NC3C(=O)NC(C(=O)NC(C(=O)NCc4ccc(OC)cc4)c4cc(O)cc(O)c4-c4cc3ccc4O)C(OC3CC(C)(N)C(O)C(C)O3)c3ccc(c(Cl)c3)Oc3cc2cc(c3OC2OC(CO)C(O)C(O)C2OC2CC(C)(NCc3ccc(-c4ccccc4)cc3)C(O)C(C)O2)Oc2ccc(cc2Cl)C1O.O=C(O)C(F)(F)F` (centres unmarked) [Example 12, N^4-(4-phenylbenzyl)A82846B, (4-methoxybenzyl) amide, trifluoroacetate salt], the “Minimum Inhibitory Concentrations (MICs), Mean Values of 4-6 Isolates, Sensitive” value (“Minimum Inhibitory Concentrations … Sensitive” below) [1] was 0.13, the MIC, SH105 [2] was 1 µg/mL and the MIC, SA 447 [3] was 1 µg/mL. The MIC, S PN P1 [4] was at most 0.06 µg/mL, the MIC, SE270 [5] was 2 µg/mL and the “Minimum Inhibitory Concentrations (MICs), Mean Values of 4-6 Isolates, Resistant” value (shortened to “Minimum Inhibitory Concentrations … Resistant”) [6] was 1.7. It also gave an MIC, SA 489 [7] of 0.5 µg/mL, an MIC, SA 446 [8] of 2 µg/mL and an MIC, SH415 [9] of 4 µg/mL. It also gave an MIC, S PY 203 [10] of at most 0.06 µg/mL.

For `CNC(CC(C)C)C(=O)NC1C(=O)NC(CC(N)=O)C(=O)NC2C(=O)NC3C(=O)NC(C(=O)NC(C(=O)NCCC(c4ccccc4)c4ccccc4)c4cc(O)cc(O)c4-c4cc3ccc4O)C(OC3CC(C)(N)C(O)C(C)O3)c3ccc(c(Cl)c3)Oc3cc2cc(c3OC2OC(CO)C(O)C(O)C2OC2CC(C)(NCc3ccc(-c4ccccc4)cc3)C(O)C(C)O2)Oc2ccc(cc2Cl)C1O` (centres unmarked) [Example 22, N^4-(4-phenylbenzyl)A82846B, (3,3-diphenyl-n-propyl) amide], the “Minimum Inhibitory Concentrations … Sensitive” value [1] was 0.87, the MIC, SH105 [2] was 8 µg/mL (≈ 4.1 µM) and the MIC, SA 447 [3] was 32 µg/mL (≈ 16.4 µM). For the same molecule, the MIC, S PN P1 [4] was 0.125 µg/mL (≈ 0.064 µM), the MIC, SE270 [5] was 16 µg/mL (≈ 8.2 µM) and the “Minimum Inhibitory Concentrations … Resistant” value [6] was 1.68. The MIC, SA 489 [7] was 32 µg/mL (≈ 16.4 µM), the MIC, SA 446 [8] was 32 µg/mL (≈ 16.4 µM) and the MIC, SH415 [9] was 8 µg/mL (≈ 4.1 µM). For the same molecule, the MIC, S PY 203 [10] was 0.125 µg/mL (≈ 0.064 µM).

“N^4 -(4-phenoxybenzyl)A82846B, benzylamide, trifiuoroacetate salt [Example 9]” was tested, and the “Minimum Inhibitory Concentrations … Sensitive” value [1] was 0.082, the MIC, SH105 [2] was 1 µg/mL and the MIC, SA 447 [3] was 1 µg/mL. The MIC, S PN P1 [4] was at most 0.06 µg/mL, the MIC, SE270 [5] was 0.5 µg/mL and the “Minimum Inhibitory Concentrations … Resistant” value [6] was 2. For the same molecule, the MIC, SA 489 [7] was 1 µg/mL, the MIC, SA 446 [8] was 1 µg/mL and the MIC, SH415 [9] was 1 µg/mL. It also gave an MIC, S PY 203 [10] of at most 0.06 µg/mL.

In the case of “N^4 -(4-phenylbenzy1)A82846B, DL-(2-furanon-3-yl)amide [Example 7]”, the “Minimum Inhibitory Concentrations … Sensitive” value [1] is reported as 0.048, the MIC, SH105 [2] is reported as 0.5 µg/mL and the MIC, SA 447 [3] is reported as 2 µg/mL. For the same molecule, the MIC, S PN P1 [4] was at most 0.06 µg/mL, the MIC, SE270 [5] was 0.5 µg/mL and the “Minimum Inhibitory Concentrations … Resistant” value [6] was 1.7. The MIC, SA 489 [7] was 1 µg/mL, the MIC, SA 446 [8] was 2 µg/mL and the MIC, SH415 [9] was 1 µg/mL. It also gave an MIC, S PY 203 [10] of at most 0.06 µg/mL.

With `CNC(CC(C)C)C(=O)NC1C(=O)NC(CC(N)=O)C(=O)NC2C(=O)NC3C(=O)NC(C(=O)NC(C(=O)NCCCN(C)C)c4cc(O)cc(O)c4-c4cc3ccc4O)C(OC3CC(C)(N)C(O)C(C)O3)c3ccc(c(Cl)c3)Oc3cc2cc(c3OC2OC(CO)C(O)C(O)C2OC2CC(C)(N)C(O)C(C)O2)Oc2ccc(cc2Cl)C1O.O=C(O)C(F)(F)F` (centres unmarked) [Example 23, A82846B, (3-(dimethylamino)-n-propyl)amide, trifluoroacetate salt] the “Minimum Inhibitory Concentrations … Sensitive” value [1] was 0.44, the MIC, SH105 [2] was at most 0.06 µg/mL and the MIC, SA 447 [3] was 0.125 µg/mL. For the same molecule, the MIC, S PN P1 [4] was at most 0.06 µg/mL, the MIC, SE270 [5] was at most 0.06 µg/mL and the “Minimum Inhibitory Concentrations … Resistant” value [6] was over 128. It also gave an MIC, SA 489 [7] of at most 0.06 µg/mL, an MIC, SA 446 [8] of 0.125 µg/mL and an MIC, SH415 [9] of at most 0.06 µg/mL. For the same molecule, the MIC, S PY 203 [10] was at most 0.06 µg/mL.

In the case of `CNC(CC(C)C)C(=O)NC1C(=O)NC(CC(N)=O)C(=O)NC2C(=O)NC3C(=O)NC(C(=O)NC(C(=O)NCCc4ccccc4)c4cc(O)cc(O)c4-c4cc3ccc4O)C(OC3CC(C)(N)C(O)C(C)O3)c3ccc(c(Cl)c3)Oc3cc2cc(c3OC2OC(CO)C(O)C(O)C2OC2CC(C)(NCc3ccc(-c4ccc(C)cc4)cc3)C(O)C(C)O2)Oc2ccc(cc2Cl)C1O` (centres unmarked) [Example 19, N^4-(4-(4-methylphenyl)benzyl)-A82846B, phenethylamide], the “Minimum Inhibitory Concentrations … Sensitive” value [1] is reported as 0.22, the MIC, SH105 [2] is reported as 2 µg/mL (≈ 1.07 µM) and the MIC, SA 447 [3] is reported as 4 µg/mL (≈ 2.13 µM). The MIC, S PN P1 [4] was at most 0.06 µg/mL, the MIC, SE270 [5] was 2 µg/mL (≈ 1.07 µM) and the “Minimum Inhibitory Concentrations … Resistant” value [6] was 1. The MIC, SA 489 [7] was 2 µg/mL (≈ 1.07 µM), the MIC, SA 446 [8] was 2 µg/mL (≈ 1.07 µM) and the MIC, SH415 [9] was 4 µg/mL (≈ 2.13 µM). For the same molecule, the MIC, S PY 203 [10] was at most 0.06 µg/mL.

`CNC(CC(C)C)C(=O)NC1C(=O)NC(CC(N)=O)C(=O)NC2C(=O)NC3C(=O)NC(C(=O)NC(C(=O)NCCCN(C)C)c4cc(O)cc(O)c4-c4cc3ccc4O)C(OC3CC(C)(N)C(O)C(C)O3)c3ccc(c(Cl)c3)Oc3cc2cc(c3OC2OC(CO)C(O)C(O)C2OC2CC(C)(NCc3ccc(-c4ccccc4)cc3)C(O)C(C)O2)Oc2ccc(cc2Cl)C1O` (centres unmarked) [Example 21, N^4-(4-phenylbenzyl)A82846B, (3-(dimethylamino)-n-propyl) amide] was tested, and the “Minimum Inhibitory Concentrations … Sensitive” value [1] was 0.054, the MIC, SH105 [2] was 0.5 µg/mL (≈ 0.271 µM) and the MIC, SA 447 [3] was 2 µg/mL (≈ 1.09 µM). For the same molecule, the MIC, S PN P1 [4] was at most 0.06 µg/mL, the MIC, SE270 [5] was 0.5 µg/mL (≈ 0.271 µM) and the “Minimum Inhibitory Concentrations … Resistant” value [6] was 1.2. It also gave an MIC, SA 489 [7] of 2 µg/mL (≈ 1.09 µM), an MIC, SA 446 [8] of 4 µg/mL (≈ 2.17 µM) and an MIC, SH415 [9] of 2 µg/mL (≈ 1.09 µM). For the same molecule, the MIC, S PY 203 [10] was at most 0.06 µg/mL.

With “N^4 -(4-phenylbenzyl)A82846B, butylamide, trifluoroacetate salt [Example 3]” the “Minimum Inhibitory Concentrations … Sensitive” value [1] was 0.11, the MIC, SH105 [2] was 0.5 µg/mL and the MIC, SA 447 [3] was 2 µg/mL. The MIC, S PN P1 [4] was at most 0.06 µg/mL, the MIC, SE270 [5] was 1 µg/mL and the “Minimum Inhibitory Concentrations … Resistant” value [6] was 2.4. For the same molecule, the MIC, SA 489 [7] was 4 µg/mL, the MIC, SA 446 [8] was 2 µg/mL and the MIC, SH415 [9] was 2 µg/mL. It also gave an MIC, S PY 203 [10] of at most 0.06 µg/mL.

`CNC(CC(C)C)C(=O)NC1C(=O)NC(CC(N)=O)C(=O)NC2C(=O)NC3C(=O)NC(C(=O)NC(C(=O)NCCCc4ccccc4)c4cc(O)cc(O)c4-c4cc3ccc4O)C(OC3CC(C)(N)C(O)C(C)O3)c3ccc(c(Cl)c3)Oc3cc2cc(c3OC2OC(CO)C(O)C(O)C2OC2CC(C)(N)C(O)C(C)O2)Oc2ccc(cc2Cl)C1O` (centres unmarked) [Example 20, A82846B, (3-phenyl-n-propyl) amide] was tested, and the “Minimum Inhibitory Concentrations … Sensitive” value [1] was 0.22, the MIC, SH105 [2] was 0.125 µg/mL (≈ 0.0731 µM) and the MIC, SA 447 [3] was at most 0.06 µg/mL. For the same molecule, the MIC, S PN P1 [4] was at most 0.06 µg/mL, the MIC, SE270 [5] was at most 0.06 µg/mL and the “Minimum Inhibitory Concentrations … Resistant” value [6] was 11. It also gave an MIC, SA 489 [7] of at most 0.06 µg/mL, an MIC, SA 446 [8] of 0.125 µg/mL (≈ 0.0731 µM) and an MIC, SH415 [9] of 0.25 µg/mL (≈ 0.146 µM). The MIC, S PY 203 [10] was at most 0.06 µg/mL.

In the case of “N^4 -(4-phenylbenzyl)A82846B, methylamide, trifluoroacetate salt [Example 2]”, the “Minimum Inhibitory Concentrations … Sensitive” value [1] is reported as 0.041, the MIC, SH105 [2] is reported as 0.125 µg/mL and the MIC, SA 447 [3] is reported as 0.5 µg/mL. The MIC, S PN P1 [4] was at most 0.06 µg/mL, the MIC, SE270 [5] was at most 0.06 µg/mL and the “Minimum Inhibitory Concentrations … Resistant” value [6] was 1.19. The MIC, SA 489 [7] was 1 µg/mL, the MIC, SA 446 [8] was 1 µg/mL and the MIC, SH415 [9] was 0.25 µg/mL. It also gave an MIC, S PY 203 [10] of at most 0.06 µg/mL.

With `CNC(CC(C)C)C(=O)NC1C(=O)NC(CC(N)=O)C(=O)NC2C(=O)NC3C(=O)NC(C(=O)NC(C(=O)NCc4ccccc4)c4cc(O)cc(O)c4-c4cc3ccc4O)C(OC3CC(C)(N)C(O)C(C)O3)c3ccc(c(Cl)c3)Oc3cc2cc(c3OC2OC(CO)C(O)C(O)C2OC2CC(C)(NCc3ccc(-c4ccccc4)cc3)C(O)C(C)O2)Oc2ccc(cc2Cl)C1O` (centres unmarked) [Example 10, N^4-(4-phenylbenzyl)A82846B, benzylamide] the “Minimum Inhibitory Concentrations … Sensitive” value [1] was 0.14, the MIC, SH105 [2] was 0.5 µg/mL (≈ 0.271 µM) and the MIC, SA 447 [3] was 2 µg/mL (≈ 1.08 µM). The MIC, S PN P1 [4] was at most 0.06 µg/mL, the MIC, SE270 [5] was 0.5 µg/mL (≈ 0.271 µM) and the “Minimum Inhibitory Concentrations … Resistant” value [6] was 0.84. The MIC, SA 489 [7] was 4 µg/mL (≈ 2.16 µM), the MIC, SA 446 [8] was 1 µg/mL (≈ 0.541 µM) and the MIC, SH415 [9] was 4 µg/mL (≈ 2.16 µM). It also gave an MIC, S PY 203 [10] of at most 0.06 µg/mL.
